In patent publication US9045461B2, “Phenyl-heteroaryl derivatives and methods of use thereof” (TransTech Pharma, LLC, priority 2010, dated 2015):
Structures can show the parent of a compound that is named as a salt.

What was measured:
sRAGE binding to S100b = molecular target: T1, sRAGE binding to S100b (Homo sapiens, UniProt Q15109); experiment: RAGE binding assay (ELISA), S100b as the RAGE ligand; settings: compounds tested in hydrochloride salt form, concentration at which 50% signal has been inhibited
T1 construct: extracellular domain can be isolated by proteolysis of RAGE to generate soluble RAGE (sRAGE) comprised of the V and C domains
T1 sequence (Q15109 23-342 limits assumed): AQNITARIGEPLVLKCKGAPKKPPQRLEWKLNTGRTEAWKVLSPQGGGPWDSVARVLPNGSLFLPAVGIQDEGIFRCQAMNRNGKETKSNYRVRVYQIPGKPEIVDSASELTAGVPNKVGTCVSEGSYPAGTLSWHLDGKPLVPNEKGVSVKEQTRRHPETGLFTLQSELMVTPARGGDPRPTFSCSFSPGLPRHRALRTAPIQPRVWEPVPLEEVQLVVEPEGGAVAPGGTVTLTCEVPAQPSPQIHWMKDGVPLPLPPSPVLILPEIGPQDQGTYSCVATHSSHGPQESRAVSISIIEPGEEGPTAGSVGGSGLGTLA
Procedure: (§1) The following assay method may be used to identify compounds of Formula (I) or pharmaceutically acceptable salts thereof which are useful as inhibitors of binding of physiological RAGE ligands, such as S100b and β-amyloid, to RAGE.
(§2) S100b, β-amyloid, or CML (500 ng/100 μL/well) in 100 mM sodium bicarbonate/sodium carbonate buffer (pH 9.8) is loaded onto the wells of a NUNC Maxisorp flat bottom 96-well microtitre plate. The plate is incubated at 4° C. overnight. The wells are aspirated and treated with 50 mM imidazole buffer saline (pH 7.2) (with 5 mM CaCl2/MgCl2) containing 1% bovine serum albumin (BSA) (300 μL/well) for 1 h at RT. The wells are aspirated.
(§3) Test compounds are dissolved in nanopure water (concentration: 10-100 μM). DMSO may be used as co-solvent. 25 μL of test compound solution in 4% DMSO is added, along with 75 μL sRAGE (6 nM FAC) to each well and samples are incubated for 1 h at 37° C. The wells are washed several times with 155 mM NaCl pH 7.2 buffer saline and are soaked for several seconds between each wash.
(§4) Non-radioactive detection is performed by adding:
(§5) 10 μL Biotinylated goat F(ab′)2 Anti-mouse IgG. (8.0×10-4 mg/mL, FAC), 5 μL Alk-phos-Streptavidin (3×10-3 mg/mL FAC), 0.42 μL per 5 mL Monoclonal antibody for sRAGE (FAC 6.0×10-3 mg/mL) to 5 mL 50 mM imidazole buffer saline (pH 7.2) containing 0.2% bovine serum albumin and 5 mM CaCl2. The mixture is incubated for 30 minutes at RT.
(§6) 100 μL of complex is added to each well and incubation is allowed to proceed at rt for 1 h. Wells are washed several times with wash buffer and soaked several seconds between each wash. 100 μL 1 mg/mL (pNPP) in 1 M diethanolamine (pH adjusted to 9.8 with HCl) is added. Color is allowed to develop in the dark for 30 min to 1 h at rt. The reaction is quenched with 10 μL of stop solution (0.5-1.0 N NaOH in 50% ethanol) and the absorbance is measured spectrophotometrically with a microplate reader at 405 nm.
(§7) The IC50 (μM) value in the ELISA assay represents the concentration of compound at which 50% signal has been inhibited.

[1] = molecular target: T2, sRAGE binding to β-amyloid (Homo sapiens, UniProt Q15109); experiment: RAGE binding assay (ELISA), β-amyloid as the RAGE ligand; settings: compounds tested in hydrochloride salt form, concentration at which 50% signal has been inhibited
T2 construct: extracellular domain can be isolated by proteolysis of RAGE to generate soluble RAGE (sRAGE) comprised of the V and C domains
T2 sequence (Q15109 23-342 limits assumed): as above
Procedure: as §1, §2, §3, §4, §5, §6, §7

Compound | IC50 (sRAGE binding to S100b) [nM] | IC50 [1] [nM]
CCCCc1nnc(OC[C@H]2CN(C)C[C@@H]2CO)cc1-c1ccc(OCc2ccccc2)cc1 (racemic) [Example 6, (±)-trans-{4-[5-(4-Benzyloxy-phenyl)-6-butyl-pyridazin-3-yloxymethyl]-1-methyl-pyrrolidin-3-yl}-methanol dihydrochloride] | 2130 | 2330
CCCCc1nnc(OC[C@H]2CN(C)C[C@@H]2COC)cc1-c1ccc(OCc2ccccc2)cc1 (racemic) [Example 7, (±)-trans-4-(4-Benzyloxy-phenyl)-3-butyl-6-(4-methoxymethyl-1-methyl-pyrrolidin-3-ylmethoxy)-pyridazine dihydrochloride] | 2330 | 1520
CCCCc1nnc(OC[C@H]2CCN(C)C[C@H]2O)cc1-c1ccc(OC2CCCCC2)cc1 (racemic) [Example 24, (±)-cis-4-[6-Butyl-5-(4-cyclohexyloxy-phenyl)-pyridazin-3-yloxymethyl]-1-methyl-piperidin-3-ol dihydrochloride] | 2640 | 2900
CCCCc1nnc(OC[C@H]2CCN(C)C[C@@H]2O)cc1-c1ccc(OC2CCCCC2)cc1 (racemic) [Example 25, (±)-trans-4-[6-Butyl-5-(4-cyclohexyloxy-phenyl)-pyridazin-3-yloxymethyl]-1-methyl-piperidin-3-ol dihydrochloride] | 1370 | 1540
CCCCc1nnc(OC[C@H]2CCN(C)C[C@H]2OC)cc1-c1ccc(OC2CCCCC2)cc1 (racemic) [Example 35, (±)-cis-3-Butyl-4-(4-cyclohexyloxy-phenyl)-6-(3-methoxy-1-methyl-piperidin-4-ylmethoxy)-pyridazine dihydrochloride] | 740 | 740
CCCCc1nnc(OC[C@H]2CCN(C)C[C@@H]2OC)cc1-c1ccc(OC2CCCCC2)cc1 (racemic) [Example 36, (±)-trans-3-Butyl-4-(4-cyclohexyloxy-phenyl)-6-(3-methoxy-1-methyl-piperidin-4-ylmethoxy)-pyridazine dihydrochloride] | 960 | 960
CCCCc1nnc(O[C@H]2CCN(C)C[C@@H]2F)cc1-c1ccc(OC2CCCCC2)cc1 (racemic) [Example 41, (±)-trans-3-Butyl-4-(4-cyclohexyloxy-phenyl)-6-(3-fluoro-1-methylpiperidin-4-yloxy)-pyridazine dihydrochloride] | 2190 | 4040
CCCCc1nnc(O[C@H]2CCN(C)C[C@H]2F)cc1-c1ccc(OC2CCCCC2)cc1 (racemic) [Example 42, (±)-cis-3-Butyl-4-(4-cyclohexyloxy-phenyl)-6-(3-fluoro-1-methylpiperidin-4-yloxy)-pyridazine dihydrochloride] | 2210 | 1800
CCCCc1nnc(OC[C@H]2CN(C)CC[C@H]2O)cc1-c1ccc(OC2CCCCC2)cc1 (racemic) [Example 43, (±)-cis-3-[6-Butyl-5-(4-cyclohexyloxy-phenyl)-pyridazin-3-yloxymethyl]-1-methyl-piperidin-4-ol dihydrochloride] | 2070 | 830
CCCCc1nnc(OC[C@H]2CN(C)CC[C@H]2OC)cc1-c1ccc(OC2CCCCC2)cc1 (racemic) [Example 44, (±)-cis-3-Butyl-4-(4-cyclohexyloxy-phenyl)-6-(4-methoxy-1-methyl-piperidin-3-ylmethoxy)-pyridazine dihydrochloride] | 480 | 320
CCCCc1nnc(OC[C@H]2CN(C)CC[C@@H]2OC)cc1-c1ccc(OC2CCCCC2)cc1 (racemic) [Example 46, (±)-trans-3-Butyl-4-(4-cyclohexyloxy-phenyl)-6-(4-methoxy-1-methyl-piperidin-3-ylmethoxy)-pyridazine dihydrochloride] | 1350 | 1250
CCCCc1nnc(OC[C@H]2CN(C)CC[C@@H]2O)cc1-c1ccc(OC2CCCCC2)cc1 (racemic) [Example 47, (±)-trans-3-[6-Butyl-5-(4-cyclohexyloxy-phenyl)-pyridazin-3-yloxymethyl]-1-methyl-piperidin-4-ol dihydrochloride] | 2930 | 2500
CCCCc1nnc(O[C@@H]2CN(C)CC[C@H]2C(F)F)cc1-c1ccc(OC2CCCCC2)cc1 (racemic) [Example 48, (±)-trans-3-butyl-4-(4-cyclohexyloxy-phenyl)-6-(4-difluoromethyl-1-methyl-piperidin-3-yloxy)-pyridazine dihydrochloride] | 2600 | 8960
CCCCc1nnc(C(=O)N2CC[C@@H](CN(C)C)[C@@H](OC)C2)cc1-c1ccc(OC2CCCCC2)cc1 (racemic) [Example 102, (±)-cis-[6-Butyl-5-(4-cyclohexyloxy-phenyl)-pyridazin-3-yl]-((3R,4S)-4-dimethylaminomethyl-3-methoxy-piperidin-1-yl)-methanone dihydrochloride] | 2610 | 1460
CCCCc1nnc(C(=O)NC[C@@H]2CCN(C)C[C@@H]2OC)cc1-c1ccc(OC2CCCCC2)cc1 (racemic) [Example 104, (±)-cis-6-Butyl-5-(4-cyclohexyloxy-phenyl)-pyridazine-3-carboxylic acid (3-methoxy-1-methyl-piperidin-4-ylmethyl)-amide dihydrochloride] | 1120 | 1610
CCCCc1nnc(C(=O)NC[C@H]2CCN(C)C[C@H]2F)cc1-c1ccc(OC2CCCCC2)cc1 (racemic) [Example 110, (±)-cis-6-Butyl-5-(4-cyclohexyloxy-phenyl)-pyridazine-3-carboxylic acid (3-fluoro-1-methyl-piperidin-4-ylmethyl)-amide dihydrochloride] | 1040 | 1340
CCCCc1nnc(C(=O)N[C@H]2CCN(C)C[C@H]2O)cc1-c1ccc(OC2CCCCC2)cc1 (racemic) [Example 112, (±)-cis-6-Butyl-5-(4-cyclohexyloxy-phenyl)-pyridazine-3-carboxylic acid (3-hydroxy-1-methyl-piperidin-4-yl)-amide dihydrochloride] | 1440 | 1470
CCCCc1nnc(C(=O)N[C@@H]2CCN(C)C[C@@H]2OC)cc1-c1ccc(OC2CCCCC2)cc1 (stereo in doubt) [Example 107, 6-Butyl-5-(4-cyclohexyloxy-phenyl)-pyridazine-3-carboxylic acid (3-methoxy-1-methyl-piperidin-4-yl)-amide dihydrochloride] | 970 | 560
CCCCc1nnc(OC2CCN(C)CC2)cc1-c1ccc(OCc2ccccc2)cc1 [Example 1, 4-(4-enzyloxy-phenyl)-3-butyl-6-(1-methyl-piperidin-4-yloxy)-pyridazine dihydrochloride] | 950 | 1090
CCCCc1nnc(OCC2CCN(C)CC2)cc1-c1ccc(OCc2ccccc2)cc1 [Example 2, 4-(4-Benzyloxy-phenyl)-3-butyl-6-(1-methyl-piperidin-4-ylmethoxy)-pyridazine] | 1320 | 1230
CCCCc1nnc(OCCN(CC)CC)cc1-c1ccc(OCc2ccccc2)cc1 [Example 3, {2-[5-(4-Benzyloxy-phenyl)-6-butyl-pyridazin-3-yloxy]-ethyl}-diethyl-amine dihydrochloride] | 2490 | 2280
CCCCc1nnc(OCCCN(CC)CC)cc1-c1ccc(OCc2ccccc2)cc1 [Example 4, 3-[5-(4-Benzyloxy-phenyl)-6-butyl-pyridazin-3-yloxy]-propyl}-diethyl-mine dihydrochloride] | 1140 | 1240
CCCCc1nnc(OCCCN2CCCCC2)cc1-c1ccc(OCc2ccccc2)cc1 [Example 5, 4-(4-Benzyloxy-phenyl)-3-butyl-6-(3-piperidin-1-yl-propoxy)-pyridazine dihydrochloride] | 3110 | 6280
CCCCc1nnc(OCCCN2CCOCC2)cc1-c1ccc(OCc2ccccc2)cc1 [Example 8, 4-{3-[5-(4-Benzyloxy-phenyl)-6-butyl-pyridazin-3-yloxy]-propyl}-morpholine dihydrochloride] | 4840 | 3720
CCCCc1nnc(OCC2CN(C)C2)cc1-c1ccc(OCc2ccccc2)cc1 [Example 9, 4-(4-Benzyloxy-phenyl)-3-butyl-6-(1-methyl-azetidin-3-ylmethoxy)-pyridazine dihydrochloride] | 2700 | 3140
